Source: PubChem BioAssay AID2060502 (Molecular Pharmacology Branch, DTP, NCI, 2025)

System: 885724-159-R-J1-PDC complex spheroid viability
Test: Anticancer human tumor 885724-159-R-J1-PDC patient-derived pancreatic adenocarcinoma cell line growth inhibition [GQUAD]
Settings: for IC50: curve of first compound; for viability, T/C: stronger effect = lower value; active = viability on the fitted dose curve at most 10% of control; inactive = the rest
In short: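 Tumor cells were grown as complex spheroids with HUVEC endothelial cells and mesenchymal stem cells as stroma. G-quadruplex stabilizers were combined with targeted agents over half-log dilutions from near the clinical Cmax, or from 10 microM.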

[1] = second compound 0.0316 µM, first compound 0.0316 µM
[2] = second compound 0.0316 µM, first compound 0.1 µM
[3] = second compound 0.0316 µM, first compound 0.316 µM
[4] = second compound 0.0316 µM, first compound 1 µM
[5] = second compound 0.0316 µM, first compound 3.16 µM
[6] = second compound 0.0316 µM, first compound 10 µM
[7] = second compound 0.1 µM, first compound 0.0316 µM
[8] = second compound 0.1 µM, first compound 0.1 µM
[9] = second compound 0.1 µM, first compound 0.316 µM
[10] = second compound 0.1 µM, first compound 1 µM
[11] = second compound 0.1 µM, first compound 3.16 µM
[12] = second compound 0.1 µM, first compound 10 µM
[13] = second compound 0.316 µM, first compound 0.0316 µM
[14] = second compound 0.316 µM, first compound 0.1 µM
[15] = second compound 0.316 µM, first compound 0.316 µM
[16] = second compound 0.316 µM, first compound 1 µM
[17] = second compound 0.316 µM, first compound 3.16 µM
[18] = second compound 0.316 µM, first compound 10 µM
[19] = second compound 1 µM, first compound 0.0316 µM
[20] = second compound 1 µM, first compound 0.1 µM
[21] = second compound 1 µM, first compound 0.316 µM
[22] = second compound 1 µM, first compound 1 µM
[23] = second compound 1 µM, first compound 3.16 µM
[24] = second compound 1 µM, first compound 10 µM
[25] = second compound 3.16 µM, first compound 0.0316 µM
[26] = second compound 3.16 µM, first compound 0.1 µM
[27] = second compound 3.16 µM, first compound 0.316 µM
[28] = second compound 3.16 µM, first compound 1 µM
[29] = second compound 3.16 µM, first compound 3.16 µM
[30] = second compound 3.16 µM, first compound 10 µM
[31] = second compound 10 µM, first compound 0.0316 µM
[32] = second compound 10 µM, first compound 0.1 µM
[33] = second compound 10 µM, first compound 0.316 µM
[34] = second compound 10 µM, first compound 1 µM
[35] = second compound 10 µM, first compound 3.16 µM
[36] = second compound 10 µM, first compound 10 µM
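Note: spheroids exposed to agents for seven days before readout.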
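Throughout, for viability, T/C: percent of vehicle control viability where 100% = DMSO wells.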

CC(=O)O[C@H]1C(=O)[C@@]2(C)[C@H]([C@H](OC(=O)c3ccccc3)[C@]3(O)C[C@H](OC(=O)[C@H](O)[C@@H](NC(=O)c4ccccc4)c4ccccc4)C(C)=C1C3(C)C)[C@]1(OC(C)=O)CO[C@@H]1C[C@@H]2O + CN(C)c1ccc(Nc2c3ccc(NC(=O)CCN4CCCC4)cc3nc3cc(NC(=O)CCN4CCCC4)ccc23)cc1
inactive: viability, T/C [1] 92.9% | viability, T/C [2] 82.8% | viability, T/C [3] 81.8% | viability, T/C [4] 85.3% | viability, T/C [5] 88% | viability, T/C [6] 98.7% | viability, T/C [7] 94% | viability, T/C [8] 92.7% | viability, T/C [9] 82.3% | viability, T/C [10] 89.8% | viability, T/C [11] 83.9% | viability, T/C [12] 96.8% | viability, T/C [13] 81.7% | viability, T/C [14] 82.4% | viability, T/C [15] 83.8% | viability, T/C [16] 76.7% | viability, T/C [17] 85.5% | viability, T/C [18] 81.1% | viability, T/C [19] 77.4% | viability, T/C [20] 64.3% | viability, T/C [21] 78.6% | viability, T/C [22] 68% | viability, T/C [23] 84.4% | viability, T/C [24] 82.5% | viability, T/C [25] 77.9% | viability, T/C [26] 56.1% | viability, T/C [27] 63.6% | viability, T/C [28] 66.2% | viability, T/C [29] 66.6% | viability, T/C [30] 72.1% | viability, T/C [31] 66.4% | viability, T/C [32] 69.6% | viability, T/C [33] 65.4% | viability, T/C [34] 67.4% | viability, T/C [35] 69.6% | viability, T/C [36] 67.7%
> 10 µM: IC50 (second compound 0.0316 µM) | IC50 (second compound 0.1 µM) | IC50 (second compound 0.316 µM) | IC50 (second compound 1 µM) | IC50 (second compound 3.16 µM) | IC50 (second compound 10 µM)

CC1COCCN1c1cc(C2(S(C)(=N)=O)CC2)nc(-c2ccnc3[nH]ccc23)n1 (stereo unspecified) + Cc1[nH]c2ccc(F)cc2c1-c1nc2c3cccnc3c3ncccc3c2[nH]1
inactive: viability, T/C [1] 105% | viability, T/C [2] 113% | viability, T/C [3] 103% | viability, T/C [4] 90.3% | viability, T/C [5] 95.7% | viability, T/C [6] 76.2% | viability, T/C [7] 110% | viability, T/C [8] 103% | viability, T/C [9] 95.7% | viability, T/C [10] 103% | viability, T/C [11] 77.2% | viability, T/C [12] 68.1% | viability, T/C [13] 90.3% | viability, T/C [14] 99.9% | viability, T/C [15] 93.6% | viability, T/C [16] 93.6% | viability, T/C [17] 92.4% | viability, T/C [18] 67.6% | viability, T/C [19] 81.8% | viability, T/C [20] 72.5% | viability, T/C [21] 78.8% | viability, T/C [22] 68.7% | viability, T/C [23] 66.6% | viability, T/C [24] 64.1% | viability, T/C [25] 62.5% | viability, T/C [26] 43.8% | viability, T/C [27] 56% | viability, T/C [28] 36.3% | viability, T/C [29] 48.3% | viability, T/C [30] 36% | viability, T/C [31] 68.1% | viability, T/C [32] 77.2% | viability, T/C [33] 67.5% | viability, T/C [34] 74.3% | viability, T/C [35] 61.1% | viability, T/C [36] 54.7%
> 10 µM: IC50 (second compound 0.0316 µM) | IC50 (second compound 0.1 µM) | IC50 (second compound 0.316 µM) | IC50 (second compound 1 µM) | IC50 (second compound 10 µM)
0.137 µM: IC50 (second compound 3.16 µM)

Nc1ccn(C2OC(CO)C(O)C2(F)F)c(=O)n1 (stereo unspecified) + Cc1cnc(CNC(=O)c2c(=O)c3ccc(N4CCCN(C)CC4)nc3n3c2sc2ccccc23)cn1
inactive: viability, T/C [1] 105% | viability, T/C [2] 104% | viability, T/C [3] 82% | viability, T/C [4] 98.1% | viability, T/C [5] 74.9% | viability, T/C [6] 70.3% | viability, T/C [7] 96.8% | viability, T/C [8] 113% | viability, T/C [9] 82.9% | viability, T/C [10] 82.4% | viability, T/C [11] 81.5% | viability, T/C [12] 84.4% | viability, T/C [13] 97% | viability, T/C [14] 97.9% | viability, T/C [15] 88.6% | viability, T/C [16] 78.3% | viability, T/C [17] 89.9% | viability, T/C [18] 78.8% | viability, T/C [19] 85.5% | viability, T/C [20] 87.4% | viability, T/C [21] 80.2% | viability, T/C [22] 77% | viability, T/C [23] 69.2% | viability, T/C [24] 70.6% | viability, T/C [25] 75% | viability, T/C [26] 76.3% | viability, T/C [27] 78% | viability, T/C [28] 62.9% | viability, T/C [29] 70.9% | viability, T/C [30] 68.4% | viability, T/C [31] 72.4% | viability, T/C [32] 75.1% | viability, T/C [33] 71.4% | viability, T/C [34] 69.2% | viability, T/C [35] 70.9% | viability, T/C [36] 74.8%
> 10 µM: IC50 (second compound 0.0316 µM) | IC50 (second compound 0.1 µM) | IC50 (second compound 0.316 µM) | IC50 (second compound 1 µM) | IC50 (second compound 3.16 µM) | IC50 (second compound 10 µM)
